Assay results published in patent publication US8268881B2, “Carboxamide derivatives as muscarinic receptor antagonists” (Pfizer Limited, priority 2005, dated 2012).
Read-outs that look alike come from different tables or passages of the source.

Biological target: T1, human muscarinic M3 receptor (Homo sapiens, UniProt P20309)
T1 construct: expressed in transfected cells
Experiment: hM3 β-Lac potency assay (cell based β-lactamase)
Details: CHO cells expressing human M3 receptor, NFAT β-lactamase reporter, IC50 converted to Ki by Cheng-Prusoff, read-out: Cell based β-lactamase M3 Ki
Description: M3 potency was determined in CHO-K1 cells transfected with the NFAT-Betalactamase gene. CHO (Chinese Hamster Ovary) cells recombinantly expressing the human muscarinic M3 receptor were transfected with the NFAT_β-Lac_Zeo plasmid.
The cells were re-suspended at 2×10^5 cells/ml in growth medium (composition as described above). […] Inhibition curves were plotted and IC50 values generated using a 4-parameter sigmoid fit and converted to Ki values using the Cheng-Prusoff correction and the KD value for carbamyl choline in the assay.

[1] = inhibition of 80 nM carbamyl choline signal, 4 h

T1 sequence (P20309 whole entry): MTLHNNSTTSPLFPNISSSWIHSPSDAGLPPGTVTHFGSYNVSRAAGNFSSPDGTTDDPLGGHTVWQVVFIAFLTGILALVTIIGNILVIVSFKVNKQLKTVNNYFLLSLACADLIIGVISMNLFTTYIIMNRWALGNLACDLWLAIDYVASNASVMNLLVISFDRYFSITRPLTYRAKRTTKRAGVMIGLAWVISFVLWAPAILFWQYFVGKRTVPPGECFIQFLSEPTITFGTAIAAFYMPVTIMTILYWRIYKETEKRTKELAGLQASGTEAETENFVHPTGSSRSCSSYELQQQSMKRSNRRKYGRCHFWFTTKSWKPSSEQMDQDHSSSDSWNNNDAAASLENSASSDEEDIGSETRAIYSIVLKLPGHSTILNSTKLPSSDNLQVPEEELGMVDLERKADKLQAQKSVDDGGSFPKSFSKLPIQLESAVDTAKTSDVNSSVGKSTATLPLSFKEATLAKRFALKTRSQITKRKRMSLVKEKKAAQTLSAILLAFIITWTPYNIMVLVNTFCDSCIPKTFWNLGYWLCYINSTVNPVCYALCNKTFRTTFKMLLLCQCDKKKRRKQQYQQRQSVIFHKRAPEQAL

Row | Ki [1] [nM] | SMILES | Ki ([…]) [nM]
1 | – | CC(C)(CCC(C#N)(c1ccccc1)c1ccccc1)N1CCC(OCc2cccc(O)c2)CC1 [Example 88, 5-{4-[(3-Hydroxybenzyl)oxy]piperidin-1-yl}-5-methyl-2,2-diphenylhexanenitrile] | 71.9
2 | 159 | CC(C)(CCC(C#N)(c1ccccc1)c1ccccc1)N1CCC(OCc2ccccc2)CC1 [Example 89, 5-[4-(Benzyloxy)piperidin-1-yl]-5-methyl-2,2-diphenylhexanenitrile] | –
3 | 0.268 | CC(C)(CCC(C(N)=O)(c1ccccc1)c1ccccc1)N1CCC(Oc2ccccc2)CC1 [Example 90, 5-Methyl-5-(4-Phenoxypiperidin-1-yl)-2,2-diphenylhexanamide] | –
4 | 22.6 | CC(C)(CCC(C(N)=O)(c1ccccc1)c1ccccc1)N1CCC(OCc2cccc(Br)c2)CC1 [Example 91, 5-{4-[(3-Bromobenzyl)oxy]piperidin-1-yl}-5-methyl-2,2-diphenylhexanamide] | –
5 | 2.13 | CC(C)(CCC(C(N)=O)(c1ccccc1)c1ccccc1)N1CCC(OCc2ccccc2)CC1 [Example 92, 5-[4-(Benzyloxy)piperidin-1-yl]-5-methyl-2,2-diphenylhexanamide] | –
6 | 26.8 | CC(C)(CCC(C(N)=O)(c1ccccc1)c1ccccc1)N1CCC(Oc2cc(O)c(Cl)cc2Cl)CC1 [Example 93, 5-[4-(2,4-Dichloro-5-hydroxy-phenoxy)-piperidin-1-yl]-5-methyl-2,2-diphenylhexanoic acid amide] | –
7 | 12.4 | CC(C)(CCC(C(N)=O)(c1ccccc1)c1ccccc1)N1CCC(Oc2cc(F)c(C#N)cc2F)CC1 [Example 94, 5-[4-(4-Cyano-2,5-difluoro-phenoxy)-piperidin-1-yl]-5-methyl-2,2-diphenylhexanoic acid amide] | –
8 | 6.51 | Cc1c(O)cccc1OC1CCN(C(C)(C)CCC(C(N)=O)(c2ccccc2)c2ccccc2)CC1 [Example 96, 5-[4-(3-hydroxy-2-methylphenoxy)piperidin-1-yl]-5-methyl-2,2-diphenylhexanamide] | –
9 | 139 | CC(C)(CCC(C(N)=O)(c1ccccc1)c1ccccc1)N1CCC(OCc2cccc(-c3cccc(O)c3)c2)CC1 [Example 98, 5-{4-[(3′-hydroxybiphenyl-3-yl)methoxy]piperidin-1-yl}-5-methyl-2,2-diphenylhexanamide] | –
10 | – | COc1cccc(OC2CN(C(C)(C)CCC(C#N)(c3ccccc3)c3ccccc3)C2)c1 [Example 99, 5-[3-(3-Methoxyphenoxy)azetidin-1-yl]-5-methyl-2,2-diphenylhexanenitrile] | 65.7
11 | 0.43 | COc1cccc(OC2CN(C(C)(C)CCC(C(N)=O)(c3ccccc3)c3ccccc3)C2)c1 [Example 100, 5-[3-(3-Methoxyphenoxy)azetidin-1-yl]-5-methyl-2,2-diphenylhexanamide] | –
12 | 0.0636 | CC(C)(CCC(C(N)=O)(c1ccccc1)c1ccccc1)N1CC(OCc2ccccc2)C1 [Example 102, 5-[3-(Benzyloxy)azetidin-1-yl]-5-methyl-2,2-diphenylhexanamide] | –
13 | 0.0488 | CC(C)(CCC(C(N)=O)(c1ccccc1)c1ccccc1)N1CC(Oc2ccccc2)C1 [Example 104, 5-Methyl-5-(3-phenoxyazetidin-1-yl)-2,2-diphenylhexanamide] | –
14 | 1.94 | COc1ccc(OC2CN(C(C)(C)CCC(C#N)(c3ccccc3)c3ccccc3)C2)cc1 [Example 105, 5-[3-(4-Methoxyphenoxy)azetidin-1-yl]-5-methyl-2,2-diphenylhexanenitrile] | –
15 | 0.132 | CC(C)(CCC(C(N)=O)(c1ccccc1)c1ccccc1)N1CC(Oc2ccc(O)cc2)C1 [Example 107, 5-[3-(4-hydroxyphenoxy)azetidin-1-yl]-5-methyl-2,2-diphenylhexanamide] | –
16 | 0.201 | CC(C)(CCC(C(N)=O)(c1ccccc1)c1ccccc1)N1CC(Oc2cccc(O)c2)C1 [Example 108, 5-[3-(3-Hydroxyphenoxy)azetidin-1-yl]-5-methyl-2,2-diphenylhexanamide] | –
17 | 10.8 | CC(C)(CCC(C(N)=O)(c1ccccc1)c1ccccc1)N1CC(Oc2ccccc2O)C1 [Example 109, 5-[3-(2-Hydroxyphenoxy)azetidin-1-yl]-5-methyl-2,2-diphenylhexanamide] | –
